Assay [1] has as its system C6 cells. In words: Water exchange DCE-MRI measurement of intracellular water efflux rate constant kio in C6 cells. The assay is classed as cell-based. Particulars: for kio: 50 μM TMZ, control 10.9±0.7; for decrease of kio vs control: TMZ. The procedure:
(§1) C6 cells were treated with TMZ (50 μM) and treated with 50 μM TMZ dissolved in 0.1% DMSO […] or 0.1% DMSO in complete culture medium. The magnetic resonance parameters kio and physiological information (cell morphology, AQP4 expression, cell activity and cell migration distance) were obtained on the third and seventh days of TMZ (50 μM) treatment.
(§2) In order to obtain the cell samples for MRI, U87MG (0.5˜1×10^5) or C6 (1˜2×10^6) cell lines were first washed with DPBS, disassociated by adding 1 mL of 0.25% Trypsin-EDTA solution to 60 mm dish and incubating for 0.5 to 1.0 min, and then resuspended with 2 mL PBS (or PBS supplemented with 5 mM Gadoteridol). After centrifuging the cell sample with relative centrifugal force of 150 g at 4° C. for 5 min, the sample was resuspended in a custom MR compatible glass sample tube (diameter 5 mm×length 20 mm) with 250˜300 μL PBS (or PBS+5 mM Gadoteridol). We then centrifuged the MR tubes at 300 g at 4° C. for 2 min before carrying out MRI. For AQP4 inhibition experiments, cells were pre-cultured with 6.4 μM TGN020 (Axon, CAS 51987-99-6) dissolved in PBS for 15 mins or 1 mM ouabain (Sigma, CAS 11018-89-6) for 15 mins, respectively; the PBS in the above steps was replaced with PBS+inhibitor.
The 0.5 T desktop MRI measurement system for cell culture in vitro (Pure Devices GmbH, Germany) includes: the MRI system installed on the anti-vibration platform and the autonomous nuclear magnetic tube containing live cell precipitation from the incubator, 5% CO2+95% O2 and PBS supernatant to ensure high survival rate, and the temperature monitoring optical fiber is installed. All MRI measurements were performed at room temperature (23.5+/−1° C.).
Water exchange DCE-MRI was performed with an inversion-recovery prepared turbo-spin-echo (IR-TSE) sequence and an extracellular Gd-based contrast agent, Gadoteridol (Prohance™ Bracco Diagnostics, Inc., Princeton, NJ). The following scan parameters were used in water exchange DCE-MRI: echo time (TE) 3 ms, turbo factor 16, FOV 12.8×12.8 mm^2, matrix size 32×32. Water exchange DCE-MRI was performed with two CA concentrations, 0 and 5 mM. At [CA]=5 mM, IR-TSE were measured with 13 IR delays (10 ms, 30 ms, 50 ms, 70 ms, 90 ms, 150 ms, 200 ms, 400 ms, 600 ms, 800 ms, 1 s, 5 s, 5 s) with repetition time TR varying together (TR=IR delay+5 s) and single repetition on each IR delay. At [CA]=0 mM, the longest IR delays were extended to 10 s with TR extended simultaneously (TR=IR delay+10 s) to guarantee full recovery of the longitudinal magnetization in each TR. The scan time for a single acquisition at [CA]=0 mM and 5 mM is 10 min and 5.5 min, respectively. Two acquisitions on [CA]=5 mM were acquired and averaged.
IR-TSE signal (M) at each IR delay was taken as the average signal of the cell pellet ROI. Then the signal was subtracted and normalized by the equilibrium magnetization (M0, taken as M with the longest IR delay). We define M as the normalized signal for future SS model analysis: M=(M−M0)/M0 (1)
A two-site-exchange (2SX) SS model was used here with details as described previously ^6. Briefly, the MR signal is considered as the sum of signals of two water sites—intra- and extracellular water, each site is assumed to have a similar longitude recovery rate R1, with pi and po as the mole fraction of water molecules in the intra- and extracellular space, respectively, and pi+po=1. Then the normalized IR-TSE signal M can be described with a biexponential function, M=psmexp(−tR1,sm)+(1−psm)exp(−tR1,lar) (2)
where R1,sm and R1,lar are the apparently smaller and larger R1, respectively, and psm, is the apparent fraction of MR signals showing R1,sm. The three parameters, R1,sm, R1,lar and psm, are determined by […] physical parameters including pi, the intracellular water efflux rate constant (kio), and the R1 of intracellular water (R1i), and the CA-dependent extracellular water R1 (R1o). […]

The subject of assay [2] is U87MG cell line. In words: Water exchange DCE-MRI measurement of kio in U87MG cell line with AQP4 inhibition. Particulars: Phase I (adaptation period), 6.4 μM TGN020, n=6. The assay is classed as cell-based. The procedure: as §2, with “For AQP4 inhibition experiments, cells were pre-cultured with 6.4 μM TGN020 (Axon, CAS 51987-99-6) dissolved in PBS for 15 mins or 1 mM ouabain (Sigma, CAS 11018-89-6) for 15 mins, respectively; the PBS in the above steps was replaced with PBS+inhibitor.” left out
Water exchange DCE-MRI was performed with an inversion-recovery prepared turbo-spin-echo (IR-TSE) sequence and an extracellular Gd-based contrast agent, Gadoteridol (Prohance™ Bracco Diagnostics, Inc., Princeton, NJ). […] At [CA]=5 mM, IR-TSE were measured with 13 IR delays (10 ms, 30 ms, 50 ms, 70 ms, 90 ms, 150 ms, 200 ms, 400 ms, 600 ms, 800 ms, 1 s, 5 s, 5 s) with repetition time TR varying together (TR=IR delay+5 s) and single repetition on each IR delay. […]
where R1,sm and R1,lar are the apparently smaller and larger R1, respectively, and psm, is the apparent fraction of MR signals showing R1,sm. […] For each condition (e.g., C6 at TMZ 0, 3, and 7 day), at least three samples were measured with IR-TSE at [CA]=0 mM as the baseline data. […]

For assay [3], the target named is T1, AQP4 (Rattus norvegicus, UniProt P47863).
T1 construct: C6 cell line was subcutaneously implanted into the right leg of Sprague Dawley (SD) rats to establish a glioma animal model; from tissue; host or cells: Subcutaneous C6 glioma tumour in Sprague Dawley rats (in vivo)
Description: Pharmacological inhibition of AQP4 in subcutaneous rat glioma model (C6), in vivo water exchange DCE-MRI. The procedure: All experimental protocols for animal studies were approved by the Animal Experimentation Committee of Zhejiang University. Adult (7˜8-week-old) male Sprague Dawley (SD) rats were obtained from the Laboratory Animal Center of Zhejiang University. During glioma cell introduction, rats were anesthetized with a mixture of 2% (v/v) isoflurane in air (R500IE, RWD Life Science Co., Ltd,), and then 100 μl PBS containing 5×10^6 C6 cells and 1% antibiotics (P/S) were slowly injected under the skin at the right leg. Seven to nine days after tumour implementation, the animals were taken for 7 T MRI test and the tumour was quickly removed after and fixed for IHC after MRI.
Here TGN020 was used to inhibit AQP4 in rat glioma model. For TGN020 group, each animal was treated with TGN020 (3 mg/kg, 4 ml/kg body weight) in the tail vein 15 minutes before water exchange DCE-MRI. In order to increase the solubility, before intravenous injection, TGN020 was repeatedly ultrasound and vortex at 37° C. to promote dissolution and dispersion in saline (0.9% NaCl). One day before TGN020 treatment, the same animal was treated with normal saline (4 ml/kg), and then water exchange DCE-MRI data collection was performed. In the control group, animals were treated with the same volume of normal saline on the first day and the second day. Here, the small volume infusion needs to be flushed after infusion to ensure the safety and treatment effect of rats.
In vivo water exchange DCE-MRI is achieved through clinical use of Gd-based CA (dimethylamine gadolinate, Guangzhou, China). In order to better estimate kio, the invention uses the method of two injections of CA, which improves the accuracy of kio estimation by 10 times compared with the traditional method of single injection of contrast agent. In addition, the steady-state multi-gradient echo (MGE) sequence is used to overcome the potential T2* artifacts caused by contrast agents. […] Finally, the fitting error of SS model is carefully analyzed to remove kio with large fitting error.

The subject of assay [4] is AQP4. Description: AQP4 expression (immunofluorescence, fluorescence intensity rfu) in C6 cell line during TMZ treatment. Particulars: C6 cells, 50 μM TMZ. The format is cell-based. The procedure:
as §1
After the MRI tests, the cell line sample was immediately fixed by 4% paraformaldehyde (PFA) at room temperature for 20 min, then stored in 0.5% PFA (4° C.). For immunofluorescence (IF) testing, protocols following: samples were (1) blocked with 10% goat serum (Beyotime, CO265) for one hour at room temperature; (2) incubated with primary antibody overnight at 4° C. and the secondary antibody at room temperature for 1 h; (3) stained with DAPI (4′,6-diamidino-2-phenylindole, Sigma-Aldrich, 1:1000) at room temperature for 5 min; and (4) washed three times with PBS. […] Data were collected from two fluorescence channels: one in which DAPI was characterized with excitation/emission wavelengths 375 nm/435 to 485 nm and the other with either […] (excitation/emission 470 nm/514 to 567 nm) or green (excitation/emission 525 nm/565 to 650 nm) channels. Fluorescence images were taken from either a Fluorescence Inversion Microscope System (cellSensV1.13, Olympus, Japan) or a confocal laser scanning microscope (fv1200, Olympus, Japan).

The subject of assay [5] is C6 cells. Description: Slow cycling cell (SCC) fraction by OG cell tracer in C6 cells. Particulars: before TMZ 6.0 (±0.4)%. The assay is classed as cell-based. The source says:
The present invention uses the method of cell tracer to distinguish FCC and SCC. The OG (Oregon Green 488 Carboxylic Acid Diacetate, Succinimidyl Ester) and CTV (CellTrace™ Violet reagent, ThermoFisher scientific, Invitrogen C34557) were used to distinguish FCCs (low OG or CTV intensity) and SCCs (high OG or CTV intensity, e.g., the CTV intensity>10^4) in C6 cell lines and human glioma primary cell culture, respectively. Populations of FCCs and SCCs were identified and isolated in cell cultures based on their capacity to retain OG or CTV. Briefly, the cells were first suspended in PBS containing 25 μM OG and incubated in the dark at 37° C. for 10 min. After incubation, cell samples were washed in DMEM to remove residual dye and then returned to the culturing medium for three days until imaging. Before fluorescence imaging, samples were fixed in 4% PFA for 30 min and then stained with DAPI. The fraction of SCCs was defined as the fraction of OG positive cells in the DAPI positive cells. For primary human glioma primary cell cultures, the cells were stained with 5 μM CTV (the same methods as OG) for three days. Then, the cells fluorescence intensity statistics and counts were measured by a Fluorescence Activating Cell Sorter System (FACS) (LSRFortessa X-20, BD, USA).

“And” between values parts separate entries of the source, which are not always exact repeats. Equal entries are not always repeated. “Also recorded” adds a separate entry of the source.

T1 sequence (P47863 whole entry): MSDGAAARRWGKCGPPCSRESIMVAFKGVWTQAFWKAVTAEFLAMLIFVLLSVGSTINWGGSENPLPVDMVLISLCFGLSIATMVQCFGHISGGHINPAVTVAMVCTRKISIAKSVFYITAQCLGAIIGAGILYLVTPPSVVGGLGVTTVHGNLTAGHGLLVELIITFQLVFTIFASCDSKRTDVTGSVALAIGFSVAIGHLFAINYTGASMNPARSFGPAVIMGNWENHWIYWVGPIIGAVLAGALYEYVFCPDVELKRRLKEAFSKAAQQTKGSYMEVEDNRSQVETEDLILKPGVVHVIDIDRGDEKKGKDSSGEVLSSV

For the molecule `O=C(Nc1nncs1)c1cccnc1` [TGN020], the “effect of AQP4 inhibition on kio” value in assay [1] (C6 cells on 7th day of TMZ treatment, 6.4 μM TGN020) is “could not further reduce kio; also recorded: did not lead to further reduction of kio”; in assay [2], “will not lead to a significant decrease in kio; also recorded: will not lead to further reduction of kio”. In assay [3] (TGN020 3 mg/kg tail vein 15 min before DCE-MRI, n=9, saline 6.3±0.6, 3 mg/kg), the “average kio of the whole tumor” value was 5 ± 0.7 s⁻¹ and 3.5 ± 0.7 s⁻¹. The “decrease of average kio of the whole tumor” value in assay [3] (TGN020 3 mg/kg vs saline in same animal, n=9, p=0.0246) amounted to 43%. For the same molecule, in assay [3] (TGN020 3 mg/kg, saline 0.060±0.015), the “average K^trans of the whole tumor” value amounted to 0.045 ± 0.024 min⁻¹.
Take `Cn1nnc2c(C(N)=O)ncn2c1=O` [TMZ, temozolomide]: the figures for the “decrease of AQP4 expression level, fluorescence intensity (rfu)” value in assay [4] (seventh day of treatment) and in assay [4] (third day of treatment) were 85.9% and 42.5%, respectively. Also, the kio worked out at 5.8 ± 0.2 s⁻¹ in assay [1] (C6 cells, seventh day of treatment, n=7) and 6.7 ± 0.8 s⁻¹ in assay [1] (C6 cells, third day of treatment, n=6). In assay [1] (C6 cells, 7th day of TMZ treatment vs control), the “decrease of kio (absolute)” value was determined as 4.9 s⁻¹. The “decrease of kio vs control” value amounted to 45.5% in assay [1] (C6 cells, seventh day) and 37.3% in assay [1] (C6 cells, third day). Also, the “proportion of SCC (OG+)” value is 28.9 (±0.3) % in assay [5] (seventh day of TMZ treatment) and 16.0 (±0.1) % in assay [5] (third day of TMZ treatment).

These data come from patent US11988734B2, “Method and application for measuring the intracellular water transmembrane efflux rate, and measurement method and system for magnetic resonance imaging biomarker of glioma” (ZHEJIANG UNIVERSITY, priority 2022, dated 2024).
